Measured values: US10934298B2, “Substituted pyrazolo[1,5-a]pyrimidines for the treatment of medical disorders” (BIAL—BioTech Investments, Inc., priority 2016, dated 2021)

Biological target: T1, glucocerebrosidase (Gcase) (Homo sapiens, UniProt P04062)
T1 construct: micellar solution containing 10 nM GCase and 100 nM saposin C
T1 sequence (P04062 40-536): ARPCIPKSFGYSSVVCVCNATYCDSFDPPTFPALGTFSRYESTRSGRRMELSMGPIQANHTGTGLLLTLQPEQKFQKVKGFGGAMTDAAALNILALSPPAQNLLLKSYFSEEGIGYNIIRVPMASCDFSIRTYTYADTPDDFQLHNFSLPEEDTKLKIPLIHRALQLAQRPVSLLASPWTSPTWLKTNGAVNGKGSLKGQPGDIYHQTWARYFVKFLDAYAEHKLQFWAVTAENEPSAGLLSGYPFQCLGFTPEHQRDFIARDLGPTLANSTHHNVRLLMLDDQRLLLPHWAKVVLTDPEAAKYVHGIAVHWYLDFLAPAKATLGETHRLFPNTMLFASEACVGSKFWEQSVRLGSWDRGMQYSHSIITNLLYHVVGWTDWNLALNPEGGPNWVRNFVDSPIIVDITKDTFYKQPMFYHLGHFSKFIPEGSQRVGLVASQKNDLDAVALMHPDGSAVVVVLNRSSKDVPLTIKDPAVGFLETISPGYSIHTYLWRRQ
Test: Glucocerebrosidase (Gcase) activation assay with 4-methylumbelliferyl-beta-D-glucopyranoside substrate, saposin C and phosphatidylserine/triton micelles, fluorescence readout
Type: biochemical
Protocol: The ability of exemplary compounds to activate glucocerebrosidase (Gcase) was measured.
A 484 μL aliquot of a 1.0 mg/mL solution of phosphatidylserine (PS) (Sigma P7769) in chloroform was evaporated under a stream of nitrogen for 1 hour. The lipid film was dissolved over 4 minutes of vigorous vortexing in 40 mL of 176 mM K2HPO4/50 mM citric acid (pH 4.7) containing 7.5 μL of triton X-100, resulting in a mixed micellar preparation with a composition of 0.32 mM triton and 0.37 mol % PS. 4-Methylumbelliferyl-beta-D-glucopyranoside (ACROS-337025000) was dissolved in the micellar solution to a final concentration of 2 mM for use as the reaction substrate.
Test compounds were diluted to the desired concentrations with dimethylsulfoxide (DMSO) from 10 mM stocks, and 0.41 μL of the DMSO compound mixture was added to 100 μL of micellar solution containing 10 nM GCase and 100 nM saposin C (Enzo ALX-201-262-C050). Pre-incubation was allowed to occur for 30 minutes at room temperature, after which the reaction was initiated by combining 25 μL of substrate solution with 25 μL of compound/GCase/saposin mixture. The reaction proceeded for 15 minutes at room temperature and was stopped by adding 150 μL of 1M glycine, pH 12.5. The endpoint of the reaction was monitored by measuring fluorescence intensity (excitation: 365 nm; emission: 440 nm) on a SpectraMax i3 instrument (Molecular Devices). Test compounds were screened at 1.0 and 0.1 μM final concentration, and subsequent 8-point dose response curves were obtained using 3-fold dilutions from a maximum final concentration of 5 μM.

SMILES	Percent Gcase Activation, 0.1 μM Test Compound (test compound at 0.1 μM)	Percent Gcase Activation, 1 μM Test Compound (test compound at 1.0 μM)	Percent Gcase Activation, 0.1 μM Test Compound (0.1 μM test compound)	Percent Gcase Activation, 1 μM Test Compound (1 μM test compound)	further results
Cc1cc(-c2cccc(Cl)n2)nc2c(C(=O)NC(C)C(F)(F)F)cnn12 (stereo not drawn) [III-234]	*** (greater than 20% Gcase activation)	+++ (Gcase activation greater than 60%)	–	–	–
Cc1cc(NC2CC2)nc2c(C(=O)N[C@@H](C)C3CC3)cnn12 [III-166]	** (Gcase activation in the range of 10% up to 20%)	+++ (Gcase activation greater than 60%)	–	–	–
COc1ccc(-c2cc(C)n3ncc(C(=O)NC(C)C(F)(F)F)c3n2)cn1 (stereo not drawn) [III-271]	*** (greater than 20% Gcase activation)	+++ (Gcase activation greater than 60%)	–	–	–
Cc1nsc(C)c1-c1cc(C)n2ncc(C(=O)N[C@H](C3CC3)C(F)(F)F)c2n1 [III-385]	–	–	* (less than 10% Gcase activation)	+ (less than 30% Gcase activation)	–
Cc1cc(-c2cccnc2)nc2c(C(=O)N[C@@H](C3CC3)C(F)(F)F)cnn12 [III-89]	** (Gcase activation in the range of 10% up to 20%)	+++ (Gcase activation greater than 60%)	–	–	–
Cc1cc(-c2cc(C)n3ncc(C(=O)N[C@@H](C)C4CC4)c3n2)sn1 [III-346]	–	–	** (Gcase activation in the range of 10% up to 20%)	+++ (Gcase activation greater than 60%)	–
Cc1cc(C)n2ncc(C(=O)Nc3ccc4c(c3)CCC4)c2n1 [IV-5]	–	–	–	–	Percent Gease Activation, 0.1 μM Test Compound (0.1 μM test compound, Table 4): ** (Gcase activation in the range of 10% up to 20%); Percent Gease Activation, 1 μM Test Compound (1 μM test compound, Table 4): +++ (Gcase activation greater than 60%)
Cc1cc(-c2cnccc2Cl)nc2c(C(=O)NC(C3CC3)C(F)(F)F)cnn12 (stereo not drawn) [III-122]	*** (greater than 20% Gcase activation)	+++ (Gcase activation greater than 60%)	–	–	–
CO[C@H]1CC[C@H]([C@@H](C)NC(=O)c2cnn3c(C)cc(C)nc23)CC1 [III-403]	–	–	* (less than 10% Gcase activation)	++ (Gcase activation in the range of 30% up to 60%)	–
Cc1cc(-c2cccc(C#N)c2)nc2c(C(=O)NC(C3CC3)C(F)(F)F)cnn12 (stereo not drawn) [III-72]	–	–	–	–	Percent Gcase Activation, 0.1 μM Test Compound (0.1 μM test compound, Table 3A): *** (greater than 20% Gcase activation); Percent Gcase Activation, 1 μM Test Compound (1 μM test compound, Table 3A): +++ (Gcase activation greater than 60%)
Cc1cc(-c2cnccc2F)nc2c(C(=O)NC(C3CC3)C(F)(F)F)cnn12 (stereo not drawn) [III-124]	*** (greater than 20% Gcase activation)	+++ (Gcase activation greater than 60%)	–	–	–
Cc1cc(-c2cccc(F)c2)nc2c(C(=O)N[C@@H](C)C(F)(F)F)cnn12 [III-362]	–	–	*** (greater than 20% Gcase activation)	+++ (Gcase activation greater than 60%)	–
Cc1cc(-c2ccc3ocnc3c2)nc2c(C(=O)NC(C)C(F)(F)F)cnn12 (stereo not drawn) [III-169]	*** (greater than 20% Gcase activation)	+++ (Gcase activation greater than 60%)	–	–	–
Cc1nscc1-c1cc(C)n2ncc(C(=O)N[C@@H](C3CC3)C(F)(F)F)c2n1 [III-390]	–	–	*** (greater than 20% Gcase activation)	+++ (Gcase activation greater than 60%)	–
Cc1cnc(-c2cc(C)n3ncc(C(=O)NC(C4CC4)C(F)(F)F)c3n2)o1 (stereo not drawn) [III-253]	*** (greater than 20% Gcase activation)	+++ (Gcase activation greater than 60%)	–	–	–
CCc1cc(N2CCN(C(C)C)C2=O)nc2c(C(=O)NC(C3CC3)C(F)(F)F)cnn12 (stereo not drawn) [III-224]	** (Gcase activation in the range of 10% up to 20%)	+++ (Gcase activation greater than 60%)	–	–	–
CCCO[C@H]1CC[C@H](NC(=O)c2cnn3c(C)cc(-c4cccnc4)nc23)CC1 [III-40]	–	–	–	–	Percent Gcase Activation, 0.1 μM Test Compound (0.1 μM test compound, Table 3A): * (less than 10% Gcase activation); Percent Gcase Activation, 1 μM Test Compound (1 μM test compound, Table 3A): + (less than 30% Gcase activation)
COc1cncc(-c2cc(C)n3ncc(C(=O)NC(C4CC4)C(F)(F)F)c3n2)c1 (stereo not drawn) [III-265]	*** (greater than 20% Gcase activation)	+++ (Gcase activation greater than 60%)	–	–	–
Cc1cc(N2CCC(F)(F)CC2)nc2c(C(=O)NC(C)C(F)(F)F)cnn12 (stereo not drawn) [III-181]	* (less than 10% Gcase activation)	+++ (Gcase activation greater than 60%)	–	–	–
Cc1cc(-c2cc(C#N)ccc2F)nc2c(C(=O)N[C@H](C)C(F)(F)F)cnn12 [III-351]	–	–	** (Gcase activation in the range of 10% up to 20%)	+++ (Gcase activation greater than 60%)	–
Cc1cc(-c2cccc(C#N)c2)nc2c(C(=O)N[C@H](C)C3CC3)cnn12 [III-93]	** (Gcase activation in the range of 10% up to 20%)	+++ (Gcase activation greater than 60%)	–	–	–
Cc1cc(-c2cc(C)n3ncc(C(=O)NC(C4CC4)C(F)(F)F)c3n2)sn1 (stereo not drawn) [III-214]	*** (greater than 20% Gcase activation)	+++ (Gcase activation greater than 60%)	–	–	–
Cc1cc(-c2ccccn2)nc2c(C(=O)NC(C)(C)C(F)(F)F)cnn12 [III-408]	–	–	** (Gcase activation in the range of 10% up to 20%)	+++ (Gcase activation greater than 60%)	–
Cc1cc(N2CCNC2=O)nc2c(C(=O)NC(C3CC3)C(F)(F)F)cnn12 (stereo not drawn) [III-228]	* (less than 10% Gcase activation)	+++ (Gcase activation greater than 60%)	–	–	–
Cc1cc(-c2ccc(F)cc2C#N)nc2c(C(=O)N[C@H](C)C(F)(F)F)cnn12 [III-155]	* (less than 10% Gcase activation)	++ (Gcase activation in the range of 30% up to 60%)	–	–	–
COc1ccc(-c2cc(C)n3ncc(C(=O)N[C@H](C)C(F)(F)F)c3n2)cn1 [III-272]	** (Gcase activation in the range of 10% up to 20%)	+++ (Gcase activation greater than 60%)	–	–	–
Cc1cc(C#N)c(-c2cc(C)n3ncc(C(=O)N[C@H](C)C(F)(F)F)c3n2)s1 [III-347]	–	–	*** (greater than 20% Gcase activation)	+++ (Gcase activation greater than 60%)	–
Cc1ccc(-c2cc(C)n3ncc(C(=O)N[C@@H](C4CC4)C(F)(F)F)c3n2)c(F)n1 [III-373]	–	–	*** (greater than 20% Gcase activation)	+++ (Gcase activation greater than 60%)	–
Cc1cc(-c2ccc(F)cc2)nc2c(C(=O)NC(C)C(F)(F)F)cnn12 (stereo not drawn) [III-164]	*** (greater than 20% Gcase activation)	+++ (Gcase activation greater than 60%)	–	–	–
CCc1cc(N2CCOCC2)nc2c(C(=O)NC(C3CC3)C(F)(F)F)cnn12 (stereo not drawn) [III-238]	* (less than 10% Gcase activation)	+++ (Gcase activation greater than 60%)	–	–	–
